Read-outs that look alike come from different tables or passages of the source. Bounds are passed on as bounds.

In one data set the target is T1, ovine COX-1 (Ovis aries, UniProt P05979).
T1 construct: purchased Cayman Chemical Company 700100
T1 sequence (P05979 25-600): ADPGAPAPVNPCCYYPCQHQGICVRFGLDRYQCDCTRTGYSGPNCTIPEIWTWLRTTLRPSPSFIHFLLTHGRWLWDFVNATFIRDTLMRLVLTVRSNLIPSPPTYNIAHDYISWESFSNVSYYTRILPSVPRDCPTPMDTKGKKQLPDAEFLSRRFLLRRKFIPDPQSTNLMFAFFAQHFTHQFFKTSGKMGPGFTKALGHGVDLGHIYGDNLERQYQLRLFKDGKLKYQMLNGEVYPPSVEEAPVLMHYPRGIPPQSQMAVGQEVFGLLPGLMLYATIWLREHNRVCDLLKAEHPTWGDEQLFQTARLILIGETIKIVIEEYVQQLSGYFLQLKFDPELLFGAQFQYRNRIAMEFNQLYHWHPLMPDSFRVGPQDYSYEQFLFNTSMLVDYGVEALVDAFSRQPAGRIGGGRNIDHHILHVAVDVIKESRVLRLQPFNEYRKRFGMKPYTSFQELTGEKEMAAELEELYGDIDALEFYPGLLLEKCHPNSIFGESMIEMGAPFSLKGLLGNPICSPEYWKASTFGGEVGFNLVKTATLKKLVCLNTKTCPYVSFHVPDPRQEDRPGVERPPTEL
In words: COX Fluorescent Inhibitor Screening Assay Kit, COX-1. In kind it is biochemical. On the procedure: In this work, 100 µM arachidonic acid was applied according to the manufacturer’s instructions for the “COX Fluorescent Inhibitor Screening Assay Kit”.

In the next data set the target is T2, human COX-2 (Homo sapiens, UniProt P35354).
T2 construct: purchased Cayman Chemical Company 700100
T2 sequence (P35354 18-604): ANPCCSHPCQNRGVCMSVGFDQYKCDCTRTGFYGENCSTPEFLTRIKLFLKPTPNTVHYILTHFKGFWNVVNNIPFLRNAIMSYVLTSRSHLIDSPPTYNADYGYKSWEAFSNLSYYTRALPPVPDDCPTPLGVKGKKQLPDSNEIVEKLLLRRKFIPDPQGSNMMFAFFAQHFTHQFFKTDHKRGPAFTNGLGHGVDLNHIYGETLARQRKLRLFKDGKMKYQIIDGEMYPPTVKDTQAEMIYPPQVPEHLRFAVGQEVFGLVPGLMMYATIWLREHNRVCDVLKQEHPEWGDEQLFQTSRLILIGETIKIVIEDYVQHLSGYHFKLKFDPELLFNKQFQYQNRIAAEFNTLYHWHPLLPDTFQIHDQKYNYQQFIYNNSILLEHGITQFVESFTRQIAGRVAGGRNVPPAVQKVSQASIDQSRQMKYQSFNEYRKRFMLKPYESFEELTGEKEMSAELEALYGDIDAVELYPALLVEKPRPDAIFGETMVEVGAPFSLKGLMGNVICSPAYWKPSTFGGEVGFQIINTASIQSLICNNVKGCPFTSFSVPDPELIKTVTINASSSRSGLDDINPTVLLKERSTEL
In words: COX Fluorescent Inhibitor Screening Assay Kit, COX-2. In kind it is biochemical.

The nature of another data set: logD7.4 by HPLC method. Format: physicochemical. The following applies: pH 7.4. The text has this:
The measured variances in logD7.4 measurements between the two compounds and the two methods lie in the typical range of the method, and both compounds can be seen as equally hydrophobic. This confirms that the replacement of a phenyl ring with a carborane moiety indeed increased the hydrophobicity and could therefore result in an increased BBB penetration of compound 5 compared to flurbiprofen.
In both cases, the eluent consisted of methanol and a 0.01 M phosphate buffer (pH = 7.4); the applied gradient was 0 min at 70% methanol, 10 min at 100% methanol, 20 min at 100% methanol at a flow rate of 0.6 mL/min.

In the next data set the test system is A375. In words: MTT cytotoxicity test A375. Format: cell-based, human. The following applies: A375, 48 h, up to 100 µM, mean ± SD. The protocol: (§1) The used human tumour (i.e., melanoma A375, colon cancer HCT116 and HT29, and glioblastoma LN229 and U251) and rodent tumour (i.e., mouse melanoma B16 and B16–F10; rat glioma C6) cell lines as well as murine transformed non-malignant fibroblast cell line NIH/3T3 differed in their rates of COX-1 and COX-2 expression.
(§2) Cytotoxicity was determined by conducting MTT and CV assays using cell viability as an indicator [67]. All measurements were carried out in triplicates.
For orientation: Formazan colour is commonly taken as a measure of viable cells.

A further data set has as its system HCT116. In words: MTT cytotoxicity test HCT116. The following applies: HCT116, 48 h, up to 100 µM, mean ± SD. Format: cell-based, human. The protocol: as §1, §2
Another data set relates to HT29. In words: MTT cytotoxicity test HT29. In kind it is cell-based, human. The following applies: HT29, 48 h, up to 100 µM, mean ± SD. On the procedure:
as §1, §2

A further data set has as its system LN229. The data set can be described thus: MTT cytotoxicity test LN229. Format: cell-based, human. The settings on record: LN229, 48 h, up to 100 µM, mean ± SD. The protocol:
as §1, §2

Another data set deals with U251. The data set can be described thus: MTT cytotoxicity test U251. The settings on record: U251, 48 h, up to 100 µM, mean ± SD. Format: cell-based, human. On the procedure: as §1, §2
In the next data set the test system is B16. The data set can be described thus: MTT cytotoxicity test B16. In kind it is cell-based, mouse. The following applies: B16, 48 h, up to 100 µM, mean ± SD. On the procedure:
as §1, §2

Another data set deals with B16–F10. In words: MTT cytotoxicity test B16–F10. In kind it is cell-based, mouse. The settings on record: B16–F10, 48 h, up to 100 µM, mean ± SD. The protocol: as §1, §2
For a further data set, the system named is NIH/3T3. The data set can be described thus: MTT cytotoxicity test NIH/3T3. Format: cell-based, mouse. The following applies: NIH/3T3, 48 h, up to 100 µM, mean ± SD. On the procedure: as §1, §2
The subject of the next data set is C6. In words: MTT cytotoxicity test C6. Format: cell-based, rat. The following applies: C6, 48 h, up to 100 µM, mean ± SD. The protocol:
as §1, §2

The target in another data set is T3, γ-secretase (Homo sapiens, UniProt P49768).
T3 construct: endogenous in cells; host or cells: HEK293 cells stably overexpressing Swedish-mutant APP (HEK/sw)
Format: cell-based. The settings on record: HEK/sw cells. The protocol:
The γ-secretase modulator (GSM) activity of compound 5 was tested on human embryonic kidney (HEK) 293 cells stably overexpressing ”Swedish mutant” APP (HEK/sw), a well-established cell culture model to assess GSM activity. The effect of compound 5 on Aβ production was analysed in comparison to flurbiprofen over a relevant and cell tolerable concentration range (Figure 1).
Nearly confluent (80%) HEK/sw cells were treated with the indicated concentrations of compound 5 or flurbiprofen ((±)-2-fluoro-α-methyl-4-biphenylacetic acid; F8514, Sigma–Aldrich, St. Louis, MO, USA) as described before. Cells treated with DMSO or 1 µM GSM-1 were used as negative and positive controls, respectively. After overnight treatment, the conditioned medium was collected, cleared by centrifugation (10 min, 4 °C, 16,000× g), and the levels of secreted Aβ38, Aβ40, and Aβ42 were analysed using an established Aβ species-specific sandwich immunoassay purchase from Meso Scale Discovery (MSD, Rockville, MD, USA).

On the set-up of data set [1]: method as in PMID 25513709. The settings on record: shake flask; cited from earlier work.
[2] abbreviates: enzyme-based assay, result in words.

For the compound “2-[4-(1,7-Dicarba-closo-dodecaboran-9-yl(12))phenyl]propionic acid [Compound 5]”, the “inhibitory activity on COX-1” value on ovine COX-1 (setting [2]) is recorded as “No inhibitory activity”. In addition, the IC50 (commonly the midpoint of a concentration-inhibition curve) at ovine COX-1 (ovine COX-1, fluorescence kit, 100 µM arachidonic acid, read-out: IC50 inhibition of COX-1) was over 100 µM; on human COX-2 (human COX-2, fluorescence kit, 100 µM arachidonic acid, read-out: IC50 inhibition of COX-2) it was over 100 µM; with A375, 96 ± 5.9 µM; with HCT116, over 100 µM; in the data set with HT29, over 100 µM; with LN229, 95 ± 7.1 µM. The IC50 with U251 turned out to be 77.5 ± 7.2 µM; in the data set with B16 it was 79 ± 2.4 µM; with B16–F10, 74.7 ± 0.9 µM; in the data set with NIH/3T3 it was 90 ± 10 µM; in the data set with C6 it was 92.8 ± 4.8 µM. Further, the “inhibitory activity on COX-2” value against human COX-2 (setting [2]) is recorded as “No inhibitory activity”. Further, the logD7.4 in “logD7.4 by HPLC method” (HPLC method 1: Chromolith Speed ROD RP-18E 50) was found to be 2.00; in the data set “logD7.4 by HPLC method” (HPLC method 2 (standard conditions): Asahipak ODP-50 4B 4.6 × 50) it was 1.86. The “sum of all measured Aβ species (Aβ38, Aβ40 and Aβ42) vs DMSO control” value at γ-secretase (150 µM) is reported as “did not decrease significantly”. The “effect on Aβ42:Aβ40 ratio” value on γ-secretase (extracellular Aβ) was “lowering”. Further, at γ-secretase (overnight treatment), the “ratio of short Aβ38 to longer Aβ42 (γ-secretase processivity)” value is “increased”. The “effect on Aβ42 (ratio of total Aβ)” value on γ-secretase (overnight treatment, conditioned medium) is on record as “clear dose-dependent decrease”.
Regarding `CC(C(=O)O)c1ccc(-c2ccccc2)c(F)c1` (racemic) [Flurbiprofen, (±)-2-fluoro-α-methyl-4-biphenylacetic acid], the logD7.4 in [1] is reported as 0.91.

The values are drawn from publication PMC8151329, “Modulation of γ-Secretase Activity by a Carborane-Based Flurbiprofen Analogue” (Molecules, 2021).
